Assay results: patent publication US20240424148A1, “IN-VIVO PROXIMITY-BASED LABELING SYSTEMS AND APPLICATIONS THEREOF” (THE TRUSTEES OF PRINCETON UNIVERSITY, priority 2021, published 2024)

Test: Redox potentials (electrochemistry)
Format: physicochemical
Text: This reduced species is poised to undergo single electron transfer (SET) to the aryl azide, 1 (Ep/2=−0.61 V vs Ag/AgCl), thereby regenerating the catalyst (3) (FIG. 15).
Furthermore, electrochemical reduction of the Sn-chlorin e6 catalyst generated a species with significant spectral overlap with the transient-absorption signal of the photoexcited catalyst in the presence of NADH, supporting the generation of the reduced ground state catalyst.

SMILES: [N-]=[N+]=Nc1ccc(C(=O)O)cc1 [compound 1, 4-azidobenzoic acid]
- Ep/2: −0.61 V vs Ag/AgCl
